Assay results published in US9944669B2, “Fumarate-CO-releasing molecule hybrids, their use in the treatment of inflammatory or cardiovascular diseases and their process of preparation” (UNIVERSITE PARIS EST CRETEIL VAL DE MARNE, priority 2014, dated 2018).
Structures can show the parent of a compound that is named as a salt.

How the values were obtained:
[1] = tested on: TNF-α; experiment: TNF-α production in THP-1 cells challenged with LPS; assay type: cell-based, Human; conditions: LPS (100 μg/ml), 5 μM compound, 24 h
Protocol: Human THP-1 cells cultured as in Example 3.3 were treated with LPS (100 μg/ml) alone or in the presence of 5 μM compound C, compound E or the comparative dimethyl fumarate (DMF) for 24 h.

[2] = tested on: BV2 cells challenged with lipopolysaccharide (LPS); experiment: Nitrite production in BV2 cells challenged with LPS (Griess method); assay type: cell-based
Protocol: […] At the end of the incubation, nitrite levels were measured using the Griess method.^12,14 Briefly, cell plates were centrifuged at 10,000×g for 5 min and the cell-free supernatant was incubated with an equal volume of Griess reagent (2 mM N-(1-naphtyl)ethylenediamide, 30 mM sulfanilamide and 140 mM o-phosphoric acid) for 10 min at room temperature. The absorbance was measured at 560 nm. Concentrations of nitrite (μM) were calculated from a standard curve of sodium nitrite.

[3] = tested on: HO-1; experiment: HO-1 protein expression in THP-1 cells; assay type: cell-based, Human
Protocol: THP-1 cells were exposed to different concentration of compounds A, B, and C during 6 hours.

SMILES: COC(=O)/C=C/C(=O)OC [dimethyl fumarate (DMF)]
- TNF-α production [1]: did not have any effect

SMILES: C#CCOC(=O)/C=C/C(=O)OCC [Compound J]
- Nitrite levels (μM) LPS + compound ([2]; 5 μM compound, 24 hr incubation with 0.5 μg/ml LPS, mean ± SEM): 43.2 ± 1.0 µM
- % decrease vs. LPS (nitrite) ([2]; 5 μM compound, 24 hr, LPS): 50.1%
- concentration giving almost the same reduction of nitrite production (compound C vs compound J) ([2]; BV2, LPS 1 μg/ml 24 h): 5 µM
- concentration needed for the same HO-1 result, as fold of the compound C concentration (5 μM) [3]: 10 fold
